Data: ChEMBL document CHEMBL1124539, “17-Desoxy estrogen analogues” (J Med Chem, 1989)
In brackets after ≈: the same amount, converted by molar mass.

How the values were obtained:
[1] = test system: Rattus norvegicus; assay: In vivo […] activity in rats; type: functional
[2] = species: Rattus norvegicus
[3] = target: T1, Estrogen receptor (Rattus norvegicus) (UniProt P06211+Q62986)
[4] = target: T2, Estrogen receptor (Homo sapiens, UniProt Q92731+P03372); assay: Displacement of [3H]estradiol from estrogen receptor in immature rabbit; type: protein assay, Oryctolagus cuniculus; settings: target entry is the homologue from another species
[5] = target: T3, Estrogen receptor (Rattus norvegicus, UniProt P06211+Q62986); assay: Displacement of [3H]estradiol from estrogen receptor in mature rat; type: protein assay
[6] = Selectivity ratio for antifertility and estrogenic potencies in rats; type: functional
[7] = test system: Rattus norvegicus; assay: In vivo antifertility potency in rats at 200 ug/kg/day; type: functional
[8] = target: T2, Estrogen receptor; assay: Displacement of [3H]estradiol from estrogen receptor in squirrel monkey; type: protein assay
[9] = target: T2, Estrogen receptor; assay: Estrogenic effect in rhesus monkey relative to ethynylestradiol; type: functional; settings: Macaca mulatta; target entry is the homologue from another species
[10] = test system: Rattus norvegicus; assay: In vivo anti-fertility activity in rat; type: functional
[11] = target: T3, Estrogen receptor
[12] = target: T1, Estrogen receptor (Rattus norvegicus); remark: listed apart in the source
[13] = target: T1, Estrogen receptor (Rattus norvegicus); remark: listed apart in the source
[14] = target: T3, Estrogen receptor; assay: Displacement of [3H]estradiol from estrogen receptor in immature rat; type: protein assay
[15] = target: T2, Estrogen receptor; settings: Macaca mulatta
[16] = target: T3, Estrogen receptor; remark: listed apart in the source
[17] = target: T1, Estrogen receptor (Rattus norvegicus); assay: In vivo estrogenic receptor potency relative to ethynylestradiol in rat; type: functional, organism-based
[18] = target: T1, Estrogen receptor (Rattus norvegicus); assay: In vivo uterotrophic effect in immature rats; type: functional, organism-based

Work on C#C[C@]1(O)CC[C@H]2[C@@H]3CCc4cc(O)ccc4[C@H]3CC[C@@]21C [ETHINYL ESTRADIOL] yielded an Infertility activity [1] of 100 and an Antifertility potency [2] of 100.
For C=C1C[C@]2(C)[C@@H](CC)CC[C@H]2[C@@H]2CCc3cc(O)ccc3[C@@H]12, the Estrogenic potency [3] was 64 and the Antifertility potency [2] was 400.
Work on C/C=C1\CC[C@H]2[C@@H]3CCc4cc(O)ccc4[C@H]3CC[C@]12C yielded an Estrogenic potency [3] of 0.3 and an Antifertility potency [2] of 10.
Compound C=C1CC[C@H]2[C@@H]3CCc4cc(O)ccc4[C@H]3[C@H](O)C[C@]12C has an Estrogenic potency [3] of 0.02 and an Antifertility potency [2] of 10.
With CC[C@H]1CC[C@H]2[C@@H]3CCc4cc(O)ccc4[C@H]3[C@@H](OC)C[C@]12C the Estrogenic potency [3] was 37 and the Antifertility potency [2] was >2000.
With CC[Si](C#C[C@H]1CC[C@H]2[C@@H]3CCc4cc(O)ccc4[C@H]3CC[C@]12C)(CC)CC the Estrogenic potency [3] was 0.04 and the Antifertility potency [2] was <4.
In the case of C/C=C1/CC[C@H]2[C@@H]3CCc4cc(O)ccc4[C@H]3[C@H](O)C[C@]12C, the Estrogenic potency [3] is reported as 0.04 and the Antifertility potency [2] is reported as <7.
For C[C@]12CC[C@@H]3c4ccc(O)cc4CC[C@H]3[C@@H]1CC/C2=N\N, the Estrogenic potency [3] was 1.6 and the Antifertility potency [2] was <10.
For CCC/C=C1\CC[C@H]2[C@@H]3CCc4cc(O)ccc4[C@H]3CC[C@]12C, the Estrogenic potency [3] was 0.2 and the Antifertility potency [2] was <20.
For CC(=O)[C@H]1CC[C@H]2[C@@H]3CCc4cc(O)ccc4[C@H]3CC[C@]12C, the Estrogenic potency [3] was 0.01 and the Antifertility potency [2] was <4.
For C=C(C)[C@H]1CC[C@H]2[C@@H]3CCc4cc(O)ccc4[C@H]3CC[C@]12C, the Estrogenic potency [3] was 0.08 and the Antifertility potency [2] was <10.
For C[C@H]1CC[C@H]2[C@@H]3CCc4cc(O)ccc4[C@H]3CC[C@]12C, the Estrogenic potency [3] was 0.3 and the Antifertility potency [2] was 20.
With CCCC[C@H]1CC[C@H]2[C@@H]3CCc4cc(O)ccc4[C@H]3CC[C@]12C the Estrogenic potency [3] was 0.4 and the Antifertility potency [2] was <10.
Work on C=C1CC[C@H]2[C@@H]3CCc4cc(O)ccc4[C@H]3CC[C@]12C yielded an EC50 [4] of 1.5 µg/mL (≈ 5.59 µM), an EC50 [5] of 0.8 µg/mL (≈ 2.98 µM) and a Ratio [6] of 80. It also gave an Estrogenic potency [3] of 0.5, an Estrogenic potency ([3]; tested as the 2H-labelled form) of 0.65 and an Antifertility potency [2] of 40.
C[C@]12CC[C@@H]3c4ccc(O)cc4CC[C@H]3[C@@H]1CCC2=S showed an Estrogenic potency [3] of 2.4.
COc1ccc2c(c1)CC[C@@H]1[C@@H]2CC[C@@]2(C)[C@H]1CC[C@@]2(O)c1ccccc1 showed an Estrogenic potency [3] of 0.69 and an Antifertility potency [2] of 10.
With CC12CCC3c4ccc(O)cc4CCC3C1C=CC2C#N (stereo unspecified) the Antifertility potency [7] was <4 and the Estrogenic potency [3] was < 0.1.
With CC[C@H]1CC[C@H]2[C@@H]3CCc4cc(O)ccc4[C@H]3[C@@H](O)C[C@]12C the EC50 [8] was 22 µg/mL (≈ 73.2 µM), the Estrogenic effect [9] was < 8 and the Antifertility activity [10] was 20. For the same compound, the EC50 [11] was 5.6 µg/mL (≈ 18.6 µM), the Estrogenic potency [3] was 0.03 and the Antifertility potency [2] was 20. It also gave a Uterotrophic effect [12] of 0.04 and a Uterotrophic effect [13] of 2.
With CC[C@H]1CC[C@H]2[C@@H]3CCc4cc(O)ccc4[C@H]3C(=O)C[C@]12C the Antifertility potency [2] was >1000.
For CC[C@H]1CC[C@H]2[C@@H]3C(C)Cc4cc(O)ccc4[C@H]3CC[C@]12C (stereo partly specified), the Estrogenic potency [3] was 15 and the Antifertility potency [2] was <200.
For C#C[C@]1(O)CC[C@H]2[C@@H]3[C@H](O)Cc4cc(O)ccc4[C@H]3CC[C@@]21C, the EC50 [8] was 52 µg/mL (≈ 166 µM), the EC50 [4] was 36 µg/mL (≈ 115 µM) and the EC50 [14] was 18 µg/mL (≈ 57.6 µM). It also gave an EC50 [5] of 6 µg/mL (≈ 19.2 µM), an Antifertility activity [10] of 66 and an Estrogenic potency [3] of 0.3. It also gave an Estrogenic effect [15] of 100, an Antifertility potency [2] of 66 and a Uterotrophic effect [12] of 0.1. The Uterotrophic effect [13] was 10.
For C[C@]12CC[C@@H]3c4ccc(O)cc4CC[C@H]3[C@@H]1CC[C@@H]2C#N, the Estrogenic potency [3] was 0.05 and the Antifertility potency [2] was <10.
With C=C[C@H]1CC[C@H]2[C@@H]3CCc4cc(O)ccc4[C@H]3CC[C@]12C the Estrogenic potency [3] was 0.26 and the Antifertility potency [2] was 10.
In the case of C=C1CC[C@H]2[C@@H]3[C@H](O)Cc4cc(O)ccc4[C@H]3CC[C@]12C, the Estrogenic potency [3] is reported as 0.1 and the Antifertility potency [2] is reported as <20.
For [2H]C([2H])=C1CC[C@H]2[C@@H]3CCc4cc(O)ccc4[C@H]3CC[C@]12C, the Antifertility potency [2] was 67.
With CC/C=C1\CC[C@H]2[C@@H]3CCc4cc(O)ccc4[C@H]3CC[C@]12C the Estrogenic potency [3] was 0.4 and the Antifertility potency [2] was <20.
With CC[Si](CC)(CC)CC[C@H]1CC[C@H]2[C@@H]3CCc4cc(O)ccc4[C@H]3CC[C@]12C the Estrogenic potency [3] was 0.27 and the Antifertility potency [2] was 10.
In the case of C[C@]12CC[C@@H]3c4ccc(O)cc4CC[C@H]3[C@@H]1CC/C2=N\Nc1ccccn1, the Estrogenic potency [3] is reported as 0.1 and the Antifertility potency [2] is reported as <4.
CC[C@H]1CC[C@H]2[C@@H]3CCc4cc(O)ccc4[C@H]3CC[C@]12C (stereo in doubt; 8b) [listing 1 of 2 here] showed an EC50 [8] of 60 µg/mL (≈ 211 µM), an EC50 [4] of 11 µg/mL (≈ 38.7 µM) and an Infertility activity [1] of 66. For the same compound, the EC50 [11] was 20 µg/mL (≈ 70.3 µM), the EC50 [16] was 8 µg/mL (≈ 28.1 µM) and the Antifertility potency [2] was 66.
With COc1ccc2c(c1)CC[C@@H]1[C@@H]2CC[C@]2(C)[C@@H](c3ccccc3)CC[C@@H]12 the Estrogenic potency [3] was < 0.1 and the Antifertility potency [2] was <4.
For C[C@]12CC[C@@H]3c4ccc(O)cc4CC[C@H]3[C@@H]1CC/C2=C\C=O, the Estrogenic potency [3] was 0.05 and the Antifertility potency [2] was 10.
In the case of CC[C@H]1CC[C@H]2[C@@H]3CCc4cc(O)ccc4[C@H]3CC[C@]12C (stereo in doubt; 8i) [listing 1 of 2 here], the Antifertility potency [2] is reported as <40.
In the case of C#C[C@H]1CC[C@H]2[C@@H]3CCc4cc(O)ccc4[C@H]3CC[C@]12C, the Estrogenic potency [3] is reported as 0.07 and the Antifertility potency [2] is reported as <10.
For CC[C@H]1CC[C@H]2[C@@H]3CCc4cc(O)ccc4[C@H]3[C@@](C)(O)C[C@]12C, the Estrogenic potency [3] was 0.05 and the Antifertility potency [2] was <20.
Compound C#C[C@]1(O)CC[C@H]2[C@@H]3CCc4cc(O)ccc4[C@H]3[C@@H](OC)C[C@@]21C [MOXESTROL] has an Estrogenic potency [3] of 2000 and an Antifertility potency [2] of 1000.
In the case of C=C1CCC2C3C=Cc4cc(O)ccc4C3CCC12C (stereo unspecified), the Estrogenic potency [3] is reported as 0.04 and the Antifertility potency [2] is reported as <5.
With CC[C@H]1CC[C@H]2[C@@H]3CCc4cc(O)ccc4[C@H]3CC[C@]12C (stereo in doubt; 8b) [listing 2 of 2 here] the Estrogenic potency [17] was 1, the Uterotrophic effect [12] was 1 and the Uterotrophic effect [13] was 11.
For CO/N=C1\CC[C@H]2[C@@H]3CCc4cc(O)ccc4[C@H]3CC[C@]12C, the Antifertility potency [7] was 4 and the Estrogenic potency [3] was 0.04.
In the case of CC(F)(F)[C@H]1CC[C@H]2[C@@H]3CCc4cc(O)ccc4[C@H]3CC[C@]12C, the Estrogenic potency [3] is reported as 0.09 and the Antifertility potency [2] is reported as <20.
CC[Si](C#C[C@]1(O)CC[C@H]2[C@@H]3CCc4cc(O)ccc4[C@H]3CC[C@@]21C)(CC)CC showed an Estrogenic potency [3] of 37 and an Antifertility potency [2] of 600.
With CCC[C@H]1CC[C@H]2[C@@H]3CCc4cc(O)ccc4[C@H]3CC[C@]12C the Estrogenic potency [3] was 0.8 and the Antifertility potency [2] was 20.
With COc1ccc2c(c1)CCC1C2CCC2(C)C1C=C[C@@]2(O)c1ccccc1 (stereo partly specified) the Antifertility potency [7] was <10 and the Estrogenic potency [3] was 0.14.
Compound C[C@]12CC[C@@H]3c4ccc(O)cc4CC[C@H]3[C@@H]1CC/C2=N\O has an Antifertility potency [7] of 4 and an Estrogenic potency [3] of 0.28.
Compound CC[C@H]1CC[C@H]2[C@@H]3CCc4cc(O)ccc4[C@H]3CC[C@]12C (stereo in doubt; 8i) [listing 2 of 2 here] has an Estrogenic potency [3] of 0.16.
For C[C@]12CC[C@@H]3c4ccc(O)cc4CC[C@H]3[C@@H]1CC[C@@H]2CO, the Estrogenic potency [3] was 0.03 and the Antifertility potency [2] was <110.
Compound C#C[C@]1(O)CC[C@H]2[C@@H]3CCc4cc(O)ccc4[C@H]3[C@@H](O)C[C@@]21C has an EC50 [8] of 150 µg/mL (≈ 480 µM), an EC50 [4] of 8 µg/mL (≈ 25.6 µM) and an Infertility activity [1] of 100. For the same compound, the Infertility activity [18] was 150, the EC50 [11] was 5.2 µg/mL (≈ 16.6 µM) and the EC50 [16] was 16 µg/mL (≈ 51.2 µM). For the same compound, the Estrogenic potency [3] was 120, the Estrogenic effect [15] was 500 and the Antifertility potency [2] was 200. The Uterotrophic effect [12] was 5 and the Uterotrophic effect [13] was 19.
With CC[C@H]1CC[C@H]2[C@@H]3[C@H](O)Cc4cc(O)ccc4[C@H]3CC[C@]12C the Estrogenic potency [3] was 0.04 and the Antifertility potency [2] was <10.
